Tested on: polynuclear leukocytes present in the whole blood of dogs
Format: cell-based
Method: The compounds according to the invention were tested for their capacity to increase non-specific phagocytosis. This test consists in measuring, after treatment by flow cytometry, the capacity of the polynuclear leukocytes present in the whole blood of dogs to phagocytose latex beads 1.8 μm in diameter, on the one hand in the absence (control) and on the other hand in the presence of a compound of the invention.

C[C@H]1OC(=O)N[C@@H]1C(=O)N[C@@H](CCCCN)C(=O)N1C2CCC(CC2)[C@H]1C(=O)N[C@@H](CCCNC(=N)N)C(=O)O [Example 1, Cyclo(S)Thr-(S)Lys-(S)ABO-(S)Arg-OH]
increase relative to the control of the capacity of the polynuclear leukocytes for non-specific phagocytosis: 19%

Reference: patent publication US4965250A, “Peptide compounds having a nitrogenous polycyclic structure” (Adir ET CIE, priority 1987, dated 1990)
